We go through 15 molecules from EP4667464A1 (Cyrus Therapeutics Inc., priority 2023, dated 2024).

SMILES strings stand for the structures. Like-named read-outs stand apart in the source and are kept apart here.

For one experiment, the target named is T1, KRAS G12C::SOS1 (Homo sapiens, UniProt Q07889).
T1 construct: purchased CISBIO 64KRASG12PEH
T1 sequence (Q07889 1-1333): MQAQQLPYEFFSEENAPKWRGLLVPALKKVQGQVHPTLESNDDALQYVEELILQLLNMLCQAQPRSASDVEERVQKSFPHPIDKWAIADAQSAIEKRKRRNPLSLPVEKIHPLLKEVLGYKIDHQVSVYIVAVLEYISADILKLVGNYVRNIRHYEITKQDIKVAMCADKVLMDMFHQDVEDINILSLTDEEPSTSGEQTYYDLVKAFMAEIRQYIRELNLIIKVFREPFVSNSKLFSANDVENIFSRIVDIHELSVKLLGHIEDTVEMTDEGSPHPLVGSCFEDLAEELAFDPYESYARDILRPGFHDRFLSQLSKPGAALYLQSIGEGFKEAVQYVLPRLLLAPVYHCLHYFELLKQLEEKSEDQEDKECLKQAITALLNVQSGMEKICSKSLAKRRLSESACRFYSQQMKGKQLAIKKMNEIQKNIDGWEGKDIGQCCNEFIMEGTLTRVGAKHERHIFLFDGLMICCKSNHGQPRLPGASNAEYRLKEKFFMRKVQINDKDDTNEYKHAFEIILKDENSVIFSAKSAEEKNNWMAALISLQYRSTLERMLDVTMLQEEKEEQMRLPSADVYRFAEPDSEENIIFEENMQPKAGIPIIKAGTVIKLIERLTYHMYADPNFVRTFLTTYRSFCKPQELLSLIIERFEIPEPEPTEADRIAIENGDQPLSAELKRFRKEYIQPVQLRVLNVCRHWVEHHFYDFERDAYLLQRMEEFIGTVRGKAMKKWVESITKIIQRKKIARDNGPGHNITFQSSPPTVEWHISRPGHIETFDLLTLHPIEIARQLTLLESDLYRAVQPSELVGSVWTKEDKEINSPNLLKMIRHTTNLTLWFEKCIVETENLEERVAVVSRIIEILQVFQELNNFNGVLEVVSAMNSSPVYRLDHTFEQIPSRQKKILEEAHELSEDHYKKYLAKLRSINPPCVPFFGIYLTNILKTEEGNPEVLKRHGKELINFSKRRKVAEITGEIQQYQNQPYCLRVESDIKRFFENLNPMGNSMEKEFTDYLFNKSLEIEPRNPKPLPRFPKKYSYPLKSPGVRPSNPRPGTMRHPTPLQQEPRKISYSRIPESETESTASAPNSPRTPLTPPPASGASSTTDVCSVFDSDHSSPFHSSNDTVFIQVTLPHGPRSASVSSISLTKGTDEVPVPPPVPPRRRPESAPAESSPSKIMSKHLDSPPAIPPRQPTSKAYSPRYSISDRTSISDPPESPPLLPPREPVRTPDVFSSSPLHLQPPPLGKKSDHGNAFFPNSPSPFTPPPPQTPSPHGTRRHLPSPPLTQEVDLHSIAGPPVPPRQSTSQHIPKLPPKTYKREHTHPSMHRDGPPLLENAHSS
The experiment in a line: KRAS G12C::SOS1 protein-protein interaction (PPI) inhibition assay (HTRF). Type of experiment: binding. The protocol: Protein-protein interaction between SOS1 and KRAS^G12c was detected using KRAS G12C/SOS1 binding kit from CISBIO (64KRASG12PEH, CISBIO, FRANCE) according to the manufacturer's assay method. Briefly, the maximum concentration of an inhibitor sample was set to be 3 µM, and the inhibitor sample was diluted 7 times by 1/3, and samples having a total of 8 concentrations were prepared. In HTRF (Homogeneous Time-Resolved Fluorescence) exclusive 96-well low-volume white plate (66PL96005, CISBIO, FRANCE), 2 µL of an inhibitor sample prepared for each concentration, 5 µL of a mixed solution of Tag1 labeled KRAS^G12c protein and GTP diluted with the dilution solution provided by the manufacturer, and 5 µL of Tag2 labeled SOS1 protein were mixed, and added with 8 µL of a diluted solution where anti-Tag1 KRAS^G12C XL665 (HTRF acceptor) labeled antibody and anti-Tag2 SOS1 Terbium cryptate (HTRF donor) labeled antibody were mixed in an equal ratio and cultured at room temperature for 2 h.

The next experiment deals with T2, SOS1 (Homo sapiens, UniProt Q07889).
T2 construct: HIS-SOS1cat (160 nM; Cytoskeleton, US); His (N); purchased Cytoskeleton
T2 sequence (Q07889 564-1049 limits assumed): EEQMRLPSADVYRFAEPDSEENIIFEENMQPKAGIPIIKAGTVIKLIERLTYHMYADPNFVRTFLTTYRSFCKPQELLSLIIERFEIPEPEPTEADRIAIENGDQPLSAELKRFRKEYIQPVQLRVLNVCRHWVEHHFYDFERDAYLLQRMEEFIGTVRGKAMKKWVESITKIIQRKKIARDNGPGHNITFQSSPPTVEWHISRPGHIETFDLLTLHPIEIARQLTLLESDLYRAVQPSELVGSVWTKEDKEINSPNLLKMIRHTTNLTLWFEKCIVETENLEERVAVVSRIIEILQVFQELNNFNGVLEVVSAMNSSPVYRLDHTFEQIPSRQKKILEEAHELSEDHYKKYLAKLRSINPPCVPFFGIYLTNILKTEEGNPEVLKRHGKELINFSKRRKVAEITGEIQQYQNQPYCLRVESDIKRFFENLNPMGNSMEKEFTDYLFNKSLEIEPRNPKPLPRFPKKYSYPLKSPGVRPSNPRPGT
The experiment in a line: SOS-catalyzed nucleotide exchange assay (HTRF, SOS1-mediated GTP loading of KRAS G12D). The format is biochemical. The settings on record: GST-KRAS G12D, HIS-SOS1cat, compound 128 pM to 10 µM; read-out: SOS-catalyzed nucleotide exchange assay. The protocol:
SOS1 activity was measured by SOS1-mediated GTP loading quantification of KRAS^G12D. GTP loaded KRAS^G12D was detected by HTRF (Homogeneous Time Resolved Fluorescence) using anti-GST terbium (Cisbio, France) as a donor and a fluorescence GTP analogue (EDA-GTP-DY-647P1, [DY-647P1 labeled 2'/3'-O-(2-aminoethyl-carbamoyl)guanosine-5'-triphosphate (Jena bioscience, Germany)]) as an acceptor.
KRAS^G12D working solution was prepared by adding equal amounts of GST-KRAS^G12D (100 nM) and anti-GST-terbium (2 nM; Cisbio, France) to the assay buffer and culturing on ice for 10 minutes. […] Control solution was prepared by adding equal volumes of EDA-GTP-DY-647P1 and the assay buffer for normalization control to exclude GEF-independent GTP loading and background signals.
10 uL of the KRAS^G12D solution was added to each well and incubated for 30 minutes at room temperature while shaking. HTRF was measured using a Thermo Varioskan (excitation 334 nm, emission 665 nm). The IC50 of each inhibitor was analyzed using Graphad Prism.

Where [1] appears, read: 8 concentrations from 3 µM, three replicates, read-out: KRAS G12C::SOS1 PPI.

With `C[C@@H](O)c1cc(C(=O)N[C@H](C)c2cccc(C(F)(F)F)c2F)nn(-c2cncc(-c3cnnn3C)c2)c1=O` (single isomer, unassigned) [Example 9], the IC50 on KRAS G12C::SOS1 (setting [1]) was 50 to 150 nM; at SOS1, less than 50 nM.

In the case of `C[C@@H](NC(=O)c1ccc(=O)n(-c2cncc(-c3cnnn3C)c2)n1)c1cccc(C2(CF)CC2)c1F` (single isomer, unassigned) [Example 16], the IC50 on KRAS G12C::SOS1 (setting [1]) was more than 150 nM.

For the molecule `C[C@@H](NC(=O)c1ccc(=O)n(-c2cncc(-c3cnnn3C)c2)n1)c1cccc(C2=CCC2)c1F` (single isomer, unassigned) [Example 17], the IC50 on KRAS G12C::SOS1 (setting [1]) was more than 150 nM.

`Cc1ncc(-n2nc(C(=O)N[C@H](C)c3cccc(C(F)(F)CO)c3C)ccc2=O)cc1-c1cnnn1C` [Example 1-28, N-[(1R)-1-[3-(1,1-difluoro-2-hydroxy-ethyl)-2-methyl-phenyl]ethyl]-1-[6-methyl-5-(3-methyltriazol-4-yl)-3-pyridyl]-6-oxo-pyridazine-3-carboxamide]: the IC50 at KRAS G12C::SOS1 (setting [1]) is more than 150 nM.

For the molecule `C[C@@H](NC(=O)c1ccc(=O)n(-c2cncc(-c3cnnn3C)c2)n1)c1cccc(C(F)(F)F)c1Cl` [Example 1-31, N-[(1R)-1-[2-chloro-3-(trifluoromethyl)phenyl]ethyl]-1-[5-(3-methyltriazol-4-yl)-3-pyridyl]-6-oxo-pyridazine-3-carboxamide], on KRAS G12C::SOS1 (setting [1]), the IC50 was 50 to 150 nM.

As for `C[C@@H](NC(=O)c1ccc(=O)n(-c2cncc(-c3cnnn3C)c2)n1)c1cccc(C2(CO)CC2)c1F` [Example 1-32, N-[(1R)-1-[2-fluoro-3-[1-(hydroxymethyl)cyclopropyl]phenyl]ethyl]-1-[5-(3-methyltriazol-4-yl)-3-pyridyl]-6-oxo-pyridazine-3-carboxamide], the IC50 on KRAS G12C::SOS1 (read-out: KRAS G12C::SOS1 PPI, 8 concentrations from 3 µM, three replicates) is more than 150 nM.

In the case of `C[C@@H](NC(=O)c1cc(N[C@H](C)c2cccc(C(F)(F)F)c2F)c(=O)n(-c2cncc(-c3cnnn3C)c2)n1)c1cccc(C(F)(F)F)c1F` [Example 1-44, N-{(R)-1-[2-fluoro-3-(trifluoromethyl)phenyl]ethyl}-5-{(R)-1-[2-fluoro-3-(trifluoromethyl)phenyl]ethylamino}-1-[5-(1-methyl-1H-1,2,3-triazol-5-yl)-3-pyridyl]-6-oxo-1,6-dihydropyridazine-3-carboxamide], the IC50 at KRAS G12C::SOS1 (setting [1]) was more than 150 nM.

`CNc1ncc(-n2nc(C(=O)N[C@H](C)c3cccc(C(F)(F)F)c3F)ccc2=O)cc1-c1cnnn1C` [Example 1-45, N-{(R)-1-[2-fluoro-3-(trifluoromethyl)phenyl]ethyl}-1-[6-(methylamino)-5-(1-methyl-1H-1,2,3-triazol-5-yl)-3-pyridyl]-6-oxo-1,6-dihydropyridazine-3-carboxamide]: at KRAS G12C::SOS1 (setting [1]), the IC50 fell in the range of 50 to 150 nM.

`Cc1ncc(-n2nc(C(=O)N[C@H](C)c3cccc(C(F)F)c3F)ccc2=O)cc1-c1cnnn1C` [Example 1-47, N-{(R)-1-[3-(difluoromethyl)-2-fluorophenyl]ethyl}-1-[6-methyl-5-(1-methyl-1H-1,2,3-triazol-5-yl)-3-pyridyl]-6-oxo-1,6-dihydropyridazine-3-carboxamide]: on KRAS G12C::SOS1 (setting [1]), the IC50 is more than 150 nM.

`C[C@@H](NC(=O)c1ccc(=O)n(-c2cncc(-c3cnnn3C3COC3)c2)n1)c1cccc(C(F)(F)CO)c1F` [Example 1-70, (R)-N-(1-(3-(1,1-difluoro-2-hydroxyethyl)-2-fluorophenyl)ethyl)-1-(5-(1-(oxetan-3-yl)-1H-1,2,3-triazol-5-yl)pyridin-3-yl)-6-oxo-1,6-dihydropyridazine-3-carboxamide]: on SOS1, the IC50 was less than 50 nM.

For the molecule `[2H]C([2H])(O)C(F)(F)c1cccc([C@@H](C)NC(=O)c2ccc(=O)n(-c3cncc(-c4cnnn4C4COC4)c3)n2)c1F` [Example 1-71, (R)-N-(1-(3-(1,1-difluoro-2-hydroxyethyl-2,2-dideuterio)-2-fluorophenyl)ethyl)-1-(5-(1-(oxetan-3-yl)-1H-1,2,3-triazol-5-yl)pyridin-3-yl)-6-oxo-1,6-dihydropyridazine-3-carboxamide], the IC50 on SOS1 was less than 50 nM.

As for `C[C@@H](NC(=O)c1cc(C(F)(F)F)c(=O)n(-c2cncc(-c3cnnn3C)c2)n1)c1cccc(C(F)(F)CO)c1F` [Example 1-72, (R)-N-(1-(3-(1,1-difluoro-2-hydroxyethyl)-2-fluorophenyl)ethyl)-1-(5-(1-methyl-1H-1,2,3-triazol-5-yl)pyridin-3-yl)-6-oxo-5-(trifluoromethyl)-1,6-dihydropyridazine-3-carboxamide], the IC50 on SOS1 is less than 50 nM.

Consider `COc1ncc(-n2nc(C(=O)N[C@H](C)c3cccc(C(F)(F)F)c3F)ccc2=O)cc1-c1cnnn1C` [Example 6-5, N-{(R)-1-[2-fluoro-3-(trifluoromethyl)phenyl]ethyl}-1-[6-methoxy-5-(1-methyl-1H-1,2,3-triazol-5-yl)-3-pyridyl]-6-oxo-1,6-dihydropyridazine-3-carboxamide], for which the IC50 on KRAS G12C::SOS1 (setting [1]) was 50 to 150 nM.

With `C[C@@H](NC(=O)c1ccc(=O)n(-c2cnc(N(C)C)c(-c3cnnn3C)c2)n1)c1cccc(C(F)(F)F)c1F` [Example 6-6, N-{(R)-1-[2-fluoro-3-(trifluoromethyl)phenyl]ethyl}-1-[6-(dimethylamino)-5-(1-methyl-1H-1,2,3-triazol-5-yl)-3-pyridyl]-6-oxo-1,6-dihydropyridazine-3-carboxamide], the IC50 on KRAS G12C::SOS1 (setting [1]) lay in the range of 50 to 150 nM.

Take `COCC1(c2cccc([C@@H](C)NC(=O)c3ccc(=O)n(-c4cncc(-c5cnnn5C)c4)n3)c2F)CC1` [Example 18, N-[(1R)-1-[2-fluoro-3-[1-(methoxymethyl)cyclopropyl]phenyl]ethyl]-1-[5-(3-methyltriazol-4-yl)-3-pyridyl]-6-oxo-pyridazine-3-carboxamide]: the IC50 on KRAS G12C::SOS1 was more than 150 nM.
